Measurements reported in patent US10597430B2, “Chimeric gene for heterologous expression which encodes for peptides with antimicrobial activity” (Instituto de Investigaciones Agropecuarias, priority 2013, dated 2020).

Tests used:
Type in all cases: cell-based
Xanthomona campestris = test: Growth inhibition assay at different concentrations of peptide rAp-S (specific growth rate, OD600); conditions: control 0.385
Protocol: (§1) Growth Inhibition Assays at Different Concentrations of Peptide rAp-S: The inoculation of 5 mL of LB was performed with 100 μL of bacteria (Xanthomona campestris and Clavibacter michiganensis), followed by overnight culturing. The absorbance was quantified at OD600. Once the Abs was quantified, dilutions were made to obtain an Abs to inoculate each tube with the same concentration of bacteria with an initial OD600 of 0.04. Different peptide concentrations were used. A final volume of 10 mL in a 50 mL tube was used. In addition, a control without peptide was used for each bacterium. The kinetics of the process was followed for 8 h from time zero, determining the Abs every 2 h. The data were logarithmically transformed for the exponential phase of kinetics, and a linear regression was performed on the transformed data. The slope of the regression is the specific growth rate of the bacteria: μ (h^−1).

[1] = tested on: Clavibacter michiganensis; test: as above; conditions: control 0.072
Protocol: as §1

Botrytis cinerea = test: Antifungal growth assay on PDA agar supplemented with peptide (spore count, mycelium area); conditions: respectively
Protocol: (§2) a) Evaluation of Peptides obtained in E coli: Isolates from Botrytis cinerea, Fusarium oxysporum, Trichoderma harzianum and Alternaria spp. were treated with the purified fractions of the digested and non-digested peptides (pre-TEV/rAp-S and rAp-S) derived from the selected recombinant clone of E. coli (Example 3).
(§3) The potential antifungal abilities of both peptides were evaluated by analysis of the growth patterns of these fungi on agar PDA (potato-dextrose) in Petri dishes supplemented with protein extracts at 500 μg/L (162 nM) and 250 μg/L (81 nM), respectively.
(§4) The control growth assays were performed on PDA dishes without peptides. The growth patterns were evaluated according the amount of time required for the fungi to reach the dish walls in the control plates (10 days after inoculation in darkness at room temperature). Structural images of the fungi hyphae patterns were obtained using a Olympus® microscope (Center Valley, Pa., USA), and spores were counted using a Neubauer […] (Brand®, Wertheim, Germany) at 40×. The data were subjected to analyses of variance, and averages were separated by the least significant difference test (LSD) at the 5% level of significance using Statgraphics Centurion XV (Manμistics Inc., Rockville, Md., USA). Petri dishes containing grown fungi were scanned and digitalized for statistical processing. The area of the mycelia was quantified using Gel-Pro Analyzer 4.0 (Media Cybernetics, Minneapolis, Minn., USA), and surface values in pixels were transferred to Excel (Microsoft Corporation, USA) for analysis. The average value of the colored haloes was calculated using scanned images of five repetitions on the tenth day after inoculation. The collected data were subjected to variance analysis, and the averages separated by LSD at the 5% level of significance.

Fusarium oxysporum = test: as above; conditions: respectively
Protocol: as §2, §3, §4

Alternaria sp = test: as above; conditions: respectively
Protocol: as §2, §3, §4

Trichoderma harzianum = test: as above; conditions: respectively
Protocol: as §2, §3, §4

[2] = PDA supplemented with pre-TEV/rAp-S 500 μg/L (162 nM) and rAp-S 250 μg/L (81 nM), 10 days after inoculation
[3] = PDA supplemented with pre-TEV/rAp-S 500 μg/L and rAp-S 250 μg/L, tenth day after inoculation

Which results are given for “rAp-S: recombinant version of antimicrobial peptide Ap-S, 31 amino acids MPVGIVIAPKKSPFTAKKPGPVLSGVKAGPG (SEQ ID No. 9), released by TEV protease digestion (listed as Argopecten purpuratus)”?
Specific growth rate μ (Xanthomona campestris; peptide 1 μg/L): 0.371 h⁻¹; Specific growth rate μ (Xanthomona campestris; peptide 10 μg/L): 0.375 h⁻¹; Specific growth rate μ (Xanthomona campestris; peptide 100 μg/L): 0.386 h⁻¹; Specific growth rate μ (Xanthomona campestris; peptide 1 mg/L): 0.329 h⁻¹; Specific growth rate μ (Xanthomona campestris; peptide 2 mg/L): 0.015 h⁻¹; Specific growth rate μ (Xanthomona campestris; peptide 3 mg/L): -0.012 h⁻¹; Specific growth rate μ (Xanthomona campestris; peptide 4 mg/L): -0.019 h⁻¹; Specific growth rate μ ([1]; peptide 1 μg/L): 0.070 h⁻¹; Specific growth rate μ ([1]; peptide 10 μg/L): 0.069 h⁻¹; Specific growth rate μ ([1]; peptide 100 μg/L): 0.075 h⁻¹; Specific growth rate μ ([1]; peptide 1 mg/L): 0.069 h⁻¹; Specific growth rate μ ([1]; peptide 2 mg/L): 0.069 h⁻¹; Specific growth rate μ ([1]; peptide 3 mg/L): 0.073 h⁻¹; Specific growth rate μ ([1]; peptide 4 mg/L): 0.066 h⁻¹; Specific growth rate μ ([1]; peptide 12.5 mg/L): 0.009 h⁻¹; Specific growth rate μ ([1]; peptide 15.5 mg/L): 0.003 h⁻¹; Spore count, Average (Botrytis cinerea; [2]): 1.02 × 10^6; Central area of the mycelium, Average (Botrytis cinerea; [3]): 170781 pixeles; Spore count, Average (Fusarium oxysporum; [2]): 7.6 × 10^5; Central area of the mycelium, Average (Fusarium oxysporum; [3]): 511699 pixeles; Spore count, Average (Alternaria sp; [2]): 0; Central area of the mycelium, Average (Alternaria sp; [3]): 412403 pixeles; Spore count, Average (Trichoderma harzianum; [2]): 5.0 × 10^6; Central area of the mycelium, Average (Trichoderma harzianum; [3]): 85718 pixeles
